According to ChEMBL document CHEMBL1201862, “PubChem BioAssay data set” (2004):
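How tested: cells in 96-well plates exposed to compound for 48 hours at five concentrations. GI50 marks 50% less growth.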 The source made the active and inactive calls. Cut-off read from the data, not from the text of the source: active = GI50 up to about 1.1 µM and inactive = higher.

What was measured:
Test in all cases: DTP human tumour cell line panel, 48 h
SR = tested on: SR
HOP-62 = tested on: HOP-62
BT-549 = tested on: BT-549
HCT-15 = tested on: HCT-15
MDA-N = tested on: MDA-N
KM12 = tested on: KM12
ACHN = tested on: ACHN
NCI-H460 = tested on: NCI-H460
SN12C = tested on: SN12C
RXF 393 = tested on: RXF 393
A549 = tested on: A549
SK-MEL-2 = tested on: SK-MEL-2
SNB-19 = tested on: SNB-19
HT-29 = tested on: HT-29
HCC 2998 = tested on: HCC 2998
MDA-MB-231 = tested on: MDA-MB-231
SNB-75 = tested on: SNB-75
RPMI-8226 = tested on: RPMI-8226

| Compound | GI50 (SR) | GI50 (HOP-62) | GI50 (BT-549) | GI50 (HCT-15) [µM] | GI50 (MDA-N) | GI50 (KM12) | GI50 (ACHN) | GI50 (NCI-H460) | GI50 (SN12C) | GI50 (RXF 393) | GI50 (A549) | GI50 (SK-MEL-2) | GI50 (SNB-19) | GI50 (HT-29) | GI50 (HCC 2998) | GI50 (MDA-MB-231) | GI50 (SNB-75) | GI50 (RPMI-8226) |
| --- | --- | --- | --- | --- | --- | --- | --- | --- | --- | --- | --- | --- | --- | --- | --- | --- | --- | --- |
| Cc1ccc2c(c1)S(=O)(=O)c1ccc3ccccc3c1N2 | 15.4 µM (inactive) | > 100 µM (inactive) | > 100 µM (inactive) | > 100 | > 100 µM (inactive) | > 100 µM (inactive) | > 100 µM (inactive) | > 100 µM (inactive) | > 100 µM (inactive) | > 100 µM (inactive) | > 100 µM (inactive) | > 100 µM (inactive) | > 100 µM (inactive) | > 100 µM (inactive) | > 100 µM (inactive) | > 100 µM (inactive) | – | – |
| COc1cc2c(c(O)c1OC)C(=O)[C@@H]1CCC(=O)N1C2 | > 100 µM (inactive) | > 100 µM (inactive) | > 100 µM (inactive) | > 100 | > 100 µM (inactive) | > 100 µM (inactive) | > 100 µM (inactive) | > 100 µM (inactive) | > 100 µM (inactive) | – | > 100 µM (inactive) | > 100 µM (inactive) | > 100 µM (inactive) | > 100 µM (inactive) | > 100 µM (inactive) | > 100 µM (inactive) | > 100 µM (inactive) | > 100 µM (inactive) |
| Cc1cc2[nH]c3c(C#N)c(-c4ccccc4)c(/N=N/c4ccc(F)cc4)c(=O)n3c2cc1C | – | > 100 µM (inactive) | > 100 µM (inactive) | 36.6 | > 100 µM (inactive) | – | > 100 µM (inactive) | 83.9 µM (inactive) | > 100 µM (inactive) | > 100 µM (inactive) | 68.1 µM (inactive) | > 100 µM (inactive) | > 100 µM (inactive) | – | > 100 µM (inactive) | > 100 µM (inactive) | 36.2 µM (inactive) | > 100 µM (inactive) |
| CCCCNC(=O)C1=C(C)NC(C)=C(C(=O)NCCCC)C1 | – | > 100 µM (inactive) | > 100 µM (inactive) | > 100 | > 100 µM (inactive) | > 100 µM (inactive) | > 100 µM (inactive) | > 100 µM (inactive) | > 100 µM (inactive) | > 100 µM (inactive) | > 100 µM (inactive) | > 100 µM (inactive) | > 100 µM (inactive) | > 100 µM (inactive) | > 100 µM (inactive) | > 100 µM (inactive) | 49.8 µM (inactive) | – |
| COc1ccc2c(c1)CC1(O)COc3cc(OC)ccc3C1O2 (configuration not stated) | > 100 µM (inactive) | > 100 µM (inactive) | > 100 µM (inactive) | 96.2 | > 100 µM (inactive) | > 100 µM (inactive) | > 100 µM (inactive) | – | > 100 µM (inactive) | – | > 100 µM (inactive) | > 100 µM (inactive) | – | > 100 µM (inactive) | 77.8 µM (inactive) | > 100 µM (inactive) | – | 59 µM (inactive) |
| CC(=O)OC[C@H]1CN(OC(C)=O)C[C@@H](n2cc(C)c(=O)[nH]c2=O)O1 | – | > 100 µM (inactive) | > 100 µM (inactive) | > 100 | > 100 µM (inactive) | > 100 µM (inactive) | > 100 µM (inactive) | > 100 µM (inactive) | > 100 µM (inactive) | > 100 µM (inactive) | > 100 µM (inactive) | > 100 µM (inactive) | > 100 µM (inactive) | – | > 100 µM (inactive) | > 100 µM (inactive) | 61.5 µM (inactive) | > 100 µM (inactive) |
| [O-][n+]1nc(N2CCOCC2)nc2ccccc21 | – | > 100 µM (inactive) | > 100 µM (inactive) | > 100 | > 100 µM (inactive) | > 100 µM (inactive) | > 100 µM (inactive) | – | > 100 µM (inactive) | 49.5 µM (inactive) | > 100 µM (inactive) | > 100 µM (inactive) | > 100 µM (inactive) | > 100 µM (inactive) | > 100 µM (inactive) | > 100 µM (inactive) | > 100 µM (inactive) | > 100 µM (inactive) |
| COc1cc(C)c(/C=C2/N=C(c3ccccc3)OC2=O)c([N+](=O)[O-])c1OC | – | > 100 µM (inactive) | > 100 µM (inactive) | > 100 | > 100 µM (inactive) | > 100 µM (inactive) | > 100 µM (inactive) | > 100 µM (inactive) | > 100 µM (inactive) | > 100 µM (inactive) | > 100 µM (inactive) | > 100 µM (inactive) | > 100 µM (inactive) | > 100 µM (inactive) | > 100 µM (inactive) | > 100 µM (inactive) | 89.1 µM (inactive) | > 100 µM (inactive) |
| O=c1cc(-c2ccccc2)oc2cc(Oc3nnnn3-c3ccccc3)ccc12 | 44.9 µM (inactive) | 93.8 µM (inactive) | 21.4 µM (inactive) | 29 | 41.5 µM (inactive) | 40.4 µM (inactive) | 4.18 µM (inactive) | 36.8 µM (inactive) | 60.8 µM (inactive) | – | 31.6 µM (inactive) | 28.4 µM (inactive) | 55.8 µM (inactive) | 57.7 µM (inactive) | > 100 µM (inactive) | 42.6 µM (inactive) | – | 51.4 µM (inactive) |
| Cc1cc(Cl)ccc1/N=N/C(=O)NNc1ccc(Cl)cc1C | 22.2 µM (inactive) | 11.5 µM (inactive) | 15.6 µM (inactive) | 12.2 | 16.3 µM (inactive) | – | 16.1 µM (inactive) | 14.4 µM (inactive) | 15.4 µM (inactive) | – | 12.9 µM (inactive) | 14.1 µM (inactive) | 17.6 µM (inactive) | 21.3 µM (inactive) | 11.5 µM (inactive) | 11.7 µM (inactive) | 15.6 µM (inactive) | 22.2 µM (inactive) |
| CC1(C)CO[P@@](=S)(c2ccccn2)O[C@@H]1c1ccccc1 | 39.4 µM (inactive) | > 100 µM (inactive) | > 100 µM (inactive) | 94.4 | > 100 µM (inactive) | > 100 µM (inactive) | > 100 µM (inactive) | > 100 µM (inactive) | > 100 µM (inactive) | > 100 µM (inactive) | > 100 µM (inactive) | – | > 100 µM (inactive) | > 100 µM (inactive) | > 100 µM (inactive) | > 100 µM (inactive) | > 100 µM (inactive) | – |
| C/C(N)=C/C(=O)c1[nH]c(C(=O)O)cc1C1CCN(Cc2ccccc2)C1=O (configuration not stated) | – | 18.4 µM (inactive) | 31.8 µM (inactive) | 29.9 | 23.7 µM (inactive) | 31.9 µM (inactive) | 30 µM (inactive) | 29.4 µM (inactive) | – | 18.5 µM (inactive) | 34.4 µM (inactive) | 28.9 µM (inactive) | 33.4 µM (inactive) | 31.8 µM (inactive) | 52.7 µM (inactive) | 41.1 µM (inactive) | 23.1 µM (inactive) | 19.6 µM (inactive) |
| CC1OC(OC2C(O[C@H]3CC[C@@H]4C(=CC[C@@H]5[C@@]4(C)C(=O)C[C@]4(C)[C@@H]([C@H](C)CC[C@@H](O)C(C)(C)O)CC[C@@]54C)C3(C)C)OC(CO)C(O)C2O)C(O)C(O)C1O (some centres not stated) | – | > 100 µM (inactive) | > 100 µM (inactive) | > 100 | > 100 µM (inactive) | > 100 µM (inactive) | > 100 µM (inactive) | > 100 µM (inactive) | > 100 µM (inactive) | > 100 µM (inactive) | > 100 µM (inactive) | > 100 µM (inactive) | > 100 µM (inactive) | > 100 µM (inactive) | > 100 µM (inactive) | > 100 µM (inactive) | > 100 µM (inactive) | – |
| Fc1cccc(Cl)c1C1SCc2nc3cc4ccccc4cc3n21 (configuration not stated) | 8.32 µM (inactive) | 35 µM (inactive) | > 100 µM (inactive) | > 100 | > 100 µM (inactive) | > 100 µM (inactive) | > 100 µM (inactive) | – | 61.1 µM (inactive) | > 100 µM (inactive) | > 100 µM (inactive) | > 100 µM (inactive) | 52.7 µM (inactive) | 89.1 µM (inactive) | > 100 µM (inactive) | 61.5 µM (inactive) | – | > 100 µM (inactive) |
| COC(=O)C1=COC(C)C2C[n+]3ccc4c([nH]c5ccccc54)c3CC12 (configuration not stated) | – | > 100 µM (inactive) | > 100 µM (inactive) | 75.2 | > 100 µM (inactive) | > 100 µM (inactive) | > 100 µM (inactive) | 36.2 µM (inactive) | > 100 µM (inactive) | – | > 100 µM (inactive) | > 100 µM (inactive) | > 100 µM (inactive) | > 100 µM (inactive) | > 100 µM (inactive) | > 100 µM (inactive) | > 100 µM (inactive) | > 100 µM (inactive) |
| COc1ccc(CCN2CCN(CCc3ccc(OC)cc3)CC2)cc1 | – | > 100 µM (inactive) | > 100 µM (inactive) | > 100 | > 100 µM (inactive) | > 100 µM (inactive) | > 100 µM (inactive) | > 100 µM (inactive) | > 100 µM (inactive) | 26.2 µM (inactive) | > 100 µM (inactive) | > 100 µM (inactive) | > 100 µM (inactive) | > 100 µM (inactive) | > 100 µM (inactive) | > 100 µM (inactive) | – | > 100 µM (inactive) |
| Nc1ccc([As](=O)(O)O)cc1 [ARSANILIC ACID] | > 100 µM (inactive) | > 100 µM (inactive) | > 100 µM (inactive) | > 100 | > 100 µM (inactive) | > 100 µM (inactive) | > 100 µM (inactive) | > 100 µM (inactive) | > 100 µM (inactive) | > 100 µM (inactive) | > 100 µM (inactive) | > 100 µM (inactive) | > 100 µM (inactive) | > 100 µM (inactive) | > 100 µM (inactive) | > 100 µM (inactive) | > 100 µM (inactive) | – |
